# Patent US20220288052A1, “COMPOUND FOR COMBINATION TREATMENT” (priority 2019, published 2022)
# Assays:
# NA transporter [1] = target: T1, NA transporter (Mus musculus, UniProt O55192); assay: Ex vivo NA uptake in mice
# T1 construct: from tissue; host or cells: tissue of dosed animals (ex vivo)
# Experimental: The in vivo receptor occupancy (RO %) of compound (I) was calculated at the MED values (DOSE) in mFST and in the mouse motility test using the formula RO % (estimated)=DOSE 100/(ED50+DOSE). The calculations were based on ED50 values in ex vivo uptake of 5-HT and NA and WIN in vivo binding.
# [2] = tested on: brain levels of serotonin (5-HT); assay: In vivo microdialysis, 5-HT; parameters: species or system rat
# Experimental: The purpose of the present study was to examine, by in vivo microdialysis technique, the effects after administration of compound (I) on brain levels of serotonin, noradrenalin and dopamine within the ventral hippocampus (Hipp), prefrontal cortex (PFC), striatum (STR) and nucleus accumbens (N.Acc) of anaesthetized rats and mice. […] Compound (I) was tested following subcutaneous injections at dose levels between 0.25-30 mg/kg.
# NMRI mice [3] = assay: Locomotor activity (mLA); type: in vivo, mouse
# Experimental: FIG. 8: The effects of compound (I) on locomotor activity. Compound (I) p.o. in NMRI mice. TSE Motility.
# Compound (I) was tested in a classical test often used to measure the ability of a compound to block the reuptake of 5-HT in vivo: nialamide-induced 5-HT syndrome (m5-HT). In addition, compound (I) was tested in a locomotor activity paradigm (mLA) as a measure of its ability to block the reuptake of DA and therefore induce motility. It is generally accepted that >60% DA transporter blockade is needed to induce increased motility in this test.
# Nicotinic α7 = Nicotinic α7 (Rattus norvegicus, UniProt Q05941); assay: In-house nicotinic binding assay, Nicotinic α7
# 5-HT transporter = 5-HT transporter (Homo sapiens, UniProt P31645); assay: ^3H-Citalopram binding, human
# Excerpt: (§1) Compound (I) has been characterized as a monoamine reuptake inhibitor, based on the profile in a series of functional assays (Table 2).
# NMRI mice [4] = assay: Mouse forced swim test (mFST); type: in vivo
# Experimental: Compound (I) was tested in two of the most widely used behavioural screens for predicting antidepressant effects in the clinic: the mouse forced swim test (mFST) and mouse tail suspension test (mTST).
# In order to further characterize the role played by 5-HT and DA-ergic neurotransmission in the antidepressant-like effects of compound (I), the potential involvement of 5-HT1A and D1 receptors was investigated in the mFST.
# hERG channels = hERG channels (Homo sapiens, UniProt Q12809); assay: cell-based
# Experimental: A HEK293 cell line stably expressing Kv11.3 for hERG and KCNE1 (minK) was established. The effect of compound (I) on the amount of current carried by hERG channels was assessed in whole-cell patch clamp experiments. The channels were activated by a voltage protocol designed to simulate a human cardiac action potential.
# plasma protein [5] = assay: Plasma protein binding by equilibrium dialysis, dog; type: in vitro ADME
# Experimental: (§2) The plasma protein binding was tested in rat, mouse, dog and human plasma by equilibrium dialysis. The plasma protein binding of this compound is remarkably low (Table 24).
# [6] = Metabolic stability in human hepatocytes; type: in vitro ADME; conditions: 120 minutes at 10 μM
# Experimental: The stability of compound (I) was tested in human hepatocytes incubating for 120 minutes at 10 μM. The compound was stable in human hepatocytes.
# mice erectile tissue = assay: Penile flow by laser doppler in mice; type: in vivo, mouse
# Experimental: FIG. 33: Flow laser doppler raw data from mice erectile function (top), and average flow changes (EF) in mice erectile tissue (bottom). The increase in penile flow induced by compound (I) (1 mg/kg) was highly significant and increased 4.99 times, n=2.
# A laser doppler flow probe was positioned in situ in mice erectile tissue for measurement of penile basal flow in the absence and the presence of compound (I).
# plasma protein [7] = assay: Plasma protein binding by equilibrium dialysis, mouse; type: in vitro ADME
# Experimental: as §2
# [8] = Metabolic stability in liver microsomes, rat; type: in vitro ADME
# Experimental: (§3) The metabolic stability of compound (I) was tested in liver microsomes from all in house available species at 1 and 5 μM. One metabolite of 16 mass units higher than parent, was found in all incubations, except with human liver microsomes.
# [9] = Metabolic stability in liver microsomes, human; type: in vitro ADME
# Experimental: as §3
# NA transporter [10] = target: NA transporter (Homo sapiens, UniProt P23975); assay: ^3H-uptake human, NA transporter; type: biochemical
# Excerpt: as §1
# CYP 2C9 = CYP 2C9 (Homo sapiens, UniProt P11712); assay: CYP450 inhibition, cocktail of selective substrates, 2C9; type: in vitro ADME; conditions: CYP 2C9, Tolbutamide to 4-hydroxytolbutamide; read-out: IC50 of compound (I)
# Experimental: (§4) Compound (I) was tested for CYP450 inhibition using a cocktail of selective substrates. […] This might be addressed later in a clinical study.
# Nicotinic α4β2 = Nicotinic α4β2 (Rattus norvegicus, UniProt P09483+P12390); assay: In-house nicotinic binding assay, Nicotinic α4β2
# [11] = Metabolic stability in liver microsomes, monkey; type: in vitro ADME
# Experimental: as §3
# [12] = Bioavailability study in rat
# CYP 2D6 = CYP 2D6 (Homo sapiens, UniProt P10635); assay: CYP450 inhibition, cocktail of selective substrates, 2D6; type: in vitro ADME; conditions: CYP 2D6, Bufuralol to 1′-hydroxybufuralol; read-out: IC50 of compound (I)
# Experimental: as §4
# T1 sequence (O55192 whole entry): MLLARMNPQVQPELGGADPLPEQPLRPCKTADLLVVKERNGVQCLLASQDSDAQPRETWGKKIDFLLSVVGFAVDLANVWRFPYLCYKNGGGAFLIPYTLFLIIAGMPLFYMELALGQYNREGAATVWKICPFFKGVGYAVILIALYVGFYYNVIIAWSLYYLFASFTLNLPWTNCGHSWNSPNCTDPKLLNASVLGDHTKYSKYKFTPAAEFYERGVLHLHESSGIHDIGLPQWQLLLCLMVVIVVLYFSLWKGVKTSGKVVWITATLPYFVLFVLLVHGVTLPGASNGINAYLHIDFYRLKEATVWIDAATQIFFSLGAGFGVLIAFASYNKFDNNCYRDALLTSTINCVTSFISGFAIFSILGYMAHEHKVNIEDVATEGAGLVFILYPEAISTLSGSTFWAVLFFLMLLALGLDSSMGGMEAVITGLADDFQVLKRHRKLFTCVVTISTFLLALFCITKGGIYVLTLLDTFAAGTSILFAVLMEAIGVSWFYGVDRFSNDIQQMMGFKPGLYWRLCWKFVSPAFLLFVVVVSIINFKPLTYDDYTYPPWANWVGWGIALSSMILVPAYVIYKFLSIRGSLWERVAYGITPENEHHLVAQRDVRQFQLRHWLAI
# Chain of NA transporter (Homo sapiens, UniProt P23975) (P23975 whole entry): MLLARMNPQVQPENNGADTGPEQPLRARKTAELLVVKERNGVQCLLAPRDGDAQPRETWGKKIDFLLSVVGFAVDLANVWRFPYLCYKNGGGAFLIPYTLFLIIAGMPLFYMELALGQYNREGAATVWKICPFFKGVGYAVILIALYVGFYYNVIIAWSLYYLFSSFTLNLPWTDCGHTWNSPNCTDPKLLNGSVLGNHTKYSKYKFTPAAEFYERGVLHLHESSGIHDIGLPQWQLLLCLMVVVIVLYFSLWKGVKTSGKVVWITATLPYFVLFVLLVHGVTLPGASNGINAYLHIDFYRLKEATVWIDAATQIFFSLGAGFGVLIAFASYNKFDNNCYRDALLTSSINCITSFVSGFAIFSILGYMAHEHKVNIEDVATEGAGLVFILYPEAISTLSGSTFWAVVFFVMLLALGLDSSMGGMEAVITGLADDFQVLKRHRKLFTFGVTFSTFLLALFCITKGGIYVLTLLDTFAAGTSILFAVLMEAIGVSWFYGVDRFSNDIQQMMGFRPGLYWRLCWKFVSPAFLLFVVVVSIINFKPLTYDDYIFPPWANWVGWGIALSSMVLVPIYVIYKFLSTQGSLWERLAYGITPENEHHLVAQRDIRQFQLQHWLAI
# Chain of Nicotinic α4β2 (P09483 31-630): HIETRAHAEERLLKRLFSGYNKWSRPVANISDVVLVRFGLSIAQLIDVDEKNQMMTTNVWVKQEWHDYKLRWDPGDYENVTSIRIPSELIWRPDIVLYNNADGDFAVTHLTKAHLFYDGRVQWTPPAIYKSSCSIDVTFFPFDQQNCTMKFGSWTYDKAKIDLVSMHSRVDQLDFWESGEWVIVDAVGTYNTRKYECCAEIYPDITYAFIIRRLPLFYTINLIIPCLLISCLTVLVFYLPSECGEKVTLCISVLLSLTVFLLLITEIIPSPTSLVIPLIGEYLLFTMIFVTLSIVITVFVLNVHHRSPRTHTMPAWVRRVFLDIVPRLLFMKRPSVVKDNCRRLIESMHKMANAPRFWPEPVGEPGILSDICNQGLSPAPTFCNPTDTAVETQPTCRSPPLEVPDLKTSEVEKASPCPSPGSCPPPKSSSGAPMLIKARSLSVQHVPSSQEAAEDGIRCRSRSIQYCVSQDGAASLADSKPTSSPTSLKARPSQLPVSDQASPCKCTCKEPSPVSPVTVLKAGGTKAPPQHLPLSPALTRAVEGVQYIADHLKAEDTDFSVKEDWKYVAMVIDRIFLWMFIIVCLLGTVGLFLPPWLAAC
# Chain of Nicotinic α4β2 (P12390 25-500): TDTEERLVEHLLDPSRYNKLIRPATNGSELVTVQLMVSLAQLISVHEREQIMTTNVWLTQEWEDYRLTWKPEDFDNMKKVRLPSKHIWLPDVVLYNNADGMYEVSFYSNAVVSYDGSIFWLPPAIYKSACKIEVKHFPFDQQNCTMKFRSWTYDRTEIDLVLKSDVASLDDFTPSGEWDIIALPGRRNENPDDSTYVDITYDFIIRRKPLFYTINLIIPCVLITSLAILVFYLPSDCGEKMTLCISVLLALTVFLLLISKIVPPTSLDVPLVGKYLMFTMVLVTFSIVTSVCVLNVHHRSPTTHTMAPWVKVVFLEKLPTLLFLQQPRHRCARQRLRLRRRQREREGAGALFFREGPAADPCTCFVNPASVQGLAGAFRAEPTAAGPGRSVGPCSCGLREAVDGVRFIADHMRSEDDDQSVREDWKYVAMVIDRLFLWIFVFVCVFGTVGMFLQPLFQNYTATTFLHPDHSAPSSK
# Chain of CYP 2C9 (P11712 whole entry): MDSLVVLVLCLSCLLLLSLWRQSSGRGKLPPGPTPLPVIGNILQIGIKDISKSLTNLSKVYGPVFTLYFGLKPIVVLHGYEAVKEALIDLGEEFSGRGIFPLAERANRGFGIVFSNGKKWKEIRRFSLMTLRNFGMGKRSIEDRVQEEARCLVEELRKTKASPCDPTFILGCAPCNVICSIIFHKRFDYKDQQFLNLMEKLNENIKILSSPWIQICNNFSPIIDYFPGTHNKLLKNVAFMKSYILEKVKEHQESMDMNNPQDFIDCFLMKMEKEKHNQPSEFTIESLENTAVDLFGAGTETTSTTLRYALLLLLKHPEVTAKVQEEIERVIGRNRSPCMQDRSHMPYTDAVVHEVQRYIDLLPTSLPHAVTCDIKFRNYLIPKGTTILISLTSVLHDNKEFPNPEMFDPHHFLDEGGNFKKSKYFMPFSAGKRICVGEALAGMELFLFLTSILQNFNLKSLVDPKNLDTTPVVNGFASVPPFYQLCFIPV
# Chain of hERG channels (Q12809 whole entry): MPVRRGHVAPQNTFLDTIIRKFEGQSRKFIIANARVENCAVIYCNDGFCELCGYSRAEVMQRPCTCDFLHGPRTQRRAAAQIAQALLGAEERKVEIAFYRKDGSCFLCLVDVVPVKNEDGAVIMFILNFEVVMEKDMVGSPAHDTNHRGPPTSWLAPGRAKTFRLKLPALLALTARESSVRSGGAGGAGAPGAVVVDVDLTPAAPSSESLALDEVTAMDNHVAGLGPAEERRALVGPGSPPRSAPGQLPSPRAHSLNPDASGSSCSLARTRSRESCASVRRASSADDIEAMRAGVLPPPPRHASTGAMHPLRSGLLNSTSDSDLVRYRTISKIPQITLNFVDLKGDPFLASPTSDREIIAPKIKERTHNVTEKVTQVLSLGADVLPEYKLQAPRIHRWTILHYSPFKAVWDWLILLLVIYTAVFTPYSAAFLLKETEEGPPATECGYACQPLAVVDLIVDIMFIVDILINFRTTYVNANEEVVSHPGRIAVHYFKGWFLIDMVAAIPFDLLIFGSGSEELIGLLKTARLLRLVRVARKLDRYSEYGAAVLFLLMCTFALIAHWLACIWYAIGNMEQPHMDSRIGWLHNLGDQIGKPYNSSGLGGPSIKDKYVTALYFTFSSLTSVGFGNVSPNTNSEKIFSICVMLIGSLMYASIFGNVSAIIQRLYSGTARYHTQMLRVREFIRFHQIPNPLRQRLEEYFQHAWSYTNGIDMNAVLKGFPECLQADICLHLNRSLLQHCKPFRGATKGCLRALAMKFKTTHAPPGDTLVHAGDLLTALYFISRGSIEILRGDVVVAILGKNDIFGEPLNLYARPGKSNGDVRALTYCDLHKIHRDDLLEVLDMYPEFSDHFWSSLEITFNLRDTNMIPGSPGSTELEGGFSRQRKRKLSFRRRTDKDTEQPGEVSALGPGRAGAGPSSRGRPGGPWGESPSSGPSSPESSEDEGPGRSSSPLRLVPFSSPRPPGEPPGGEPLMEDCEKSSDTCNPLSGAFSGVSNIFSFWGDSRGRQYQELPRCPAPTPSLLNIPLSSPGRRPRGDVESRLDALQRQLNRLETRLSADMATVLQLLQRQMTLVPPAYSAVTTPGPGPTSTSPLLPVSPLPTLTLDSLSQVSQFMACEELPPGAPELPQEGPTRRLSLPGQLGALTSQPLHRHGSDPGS
# Chain of CYP 2D6 (P10635 whole entry): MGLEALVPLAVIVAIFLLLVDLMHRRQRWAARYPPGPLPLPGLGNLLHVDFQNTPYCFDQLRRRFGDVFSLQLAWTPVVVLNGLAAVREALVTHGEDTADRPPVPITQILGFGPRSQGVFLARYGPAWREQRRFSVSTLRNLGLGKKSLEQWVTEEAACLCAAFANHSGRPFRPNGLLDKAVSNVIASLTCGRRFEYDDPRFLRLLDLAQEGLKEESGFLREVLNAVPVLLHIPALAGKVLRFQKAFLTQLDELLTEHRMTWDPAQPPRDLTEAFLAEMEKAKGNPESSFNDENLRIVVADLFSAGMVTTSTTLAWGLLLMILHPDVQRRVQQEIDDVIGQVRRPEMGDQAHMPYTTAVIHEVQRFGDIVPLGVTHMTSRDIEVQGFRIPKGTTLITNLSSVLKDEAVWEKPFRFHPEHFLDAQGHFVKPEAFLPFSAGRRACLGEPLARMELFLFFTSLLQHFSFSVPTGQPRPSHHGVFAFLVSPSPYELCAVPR
# Chain of Nicotinic α7 (Q05941 23-502): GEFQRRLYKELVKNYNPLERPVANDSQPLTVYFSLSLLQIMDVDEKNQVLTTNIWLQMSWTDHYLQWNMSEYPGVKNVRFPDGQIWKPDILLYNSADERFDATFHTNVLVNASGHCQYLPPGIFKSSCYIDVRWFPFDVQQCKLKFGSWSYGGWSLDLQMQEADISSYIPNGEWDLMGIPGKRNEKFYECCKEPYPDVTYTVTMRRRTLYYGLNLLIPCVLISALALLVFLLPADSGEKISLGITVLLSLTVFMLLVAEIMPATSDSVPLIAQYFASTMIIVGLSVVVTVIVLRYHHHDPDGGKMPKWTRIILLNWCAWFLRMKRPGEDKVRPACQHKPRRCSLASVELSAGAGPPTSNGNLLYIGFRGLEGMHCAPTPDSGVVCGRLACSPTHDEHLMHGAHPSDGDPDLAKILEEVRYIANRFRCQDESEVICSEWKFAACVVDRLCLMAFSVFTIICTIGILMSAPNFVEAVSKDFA
compound,measurement,setting,value
"O=c1ccc2ccc(O[C@@H]3C[C@H]4CC[C@@H](C3)N4)cc2o1 [Compound (I), exo-7-(8-aza-bicyclo[3.2.1]oct-3-yloxy)-chromen-2-one]",NA RO %,"NA transporter [1]; estimated at MED in mFST (NMRI mice), DOSE 1 mg/kg",<1.9%
same,NA RO %,"NA transporter [1]; estimated at MED in mMotility, DOSE 10 mg/kg",<17%
same,ED50,"NA transporter [1]; mouse, po",> 50 mg/kg
same,5-HT (AUC0-160 min),"[2]; Hippocampus, 3 mg/kg s.c., 3 mg/kg",433±53%
same,5-HT (AUC0-160 min),"[2]; N.Acc, 10 mg/kg s.c.",151 ± 17%
same,5-HT (AUC0-160 min),"[2]; Pre-frontal cortex, 0.25 mg/kg s.c., 0.25 mg/kg",190±15%
same,5-HT (AUC0-160 min),"[2]; Pre-frontal cortex, 1 mg/kg s.c., 1 mg/kg",252±48%
same,5-HT (AUC0-160 min),"[2]; Pre-frontal cortex, 10 mg/kg s.c., 10 mg/kg",263±47%
same,5-HT (AUC0-160 min),"[2]; Pre-frontal cortex, WAY100365 0.1 mg/kg + compound (I) 0.25 mg/kg",253 ± 32%
same,5-HT (AUC0-160 min),"[2]; Striatum, 3 mg/kg s.c.",138 ± 31%
same,5-HT (AUC0-160 min),"[2]; Striatum, 10 mg/kg s.c.",170 ± 12%
same,MED,"NMRI mice [3]; mLA, 1, 3, 10 mg/kg p.o. −60 min + SCH23390 0.00375 mg/kg s.c. −60 min",10 mg/kg
same,MED,"NMRI mice [3]; mLA, p.o. 0 min",10 mg/kg
same,IC50,Nicotinic α7,> 10 µM
same,Ki,5-HT transporter,0.00024 µM
same,MED,"NMRI mice [4]; mFST (NMRI), p.o. 60 min",1 mg/kg
same,MED,"NMRI mice [4]; mFST, 0.03, 0.1, 0.3 mg/kg p.o. −60 min + WAY100635 0.1 mg/kg s.c. −60 min",0.1 mg/kg
same,MED,"NMRI mice [4]; mFST, 1, 3, 10 mg/kg p.o. −60 min + SCH23390 0.00375 mg/kg s.c. −60 min",10 mg/kg
same,MED,"NMRI mice [4]; mFST, 1, 3, 10 mg/kg p.o. −60 min + WAY100635 1 mg/kg s.c. −60 min",1 mg/kg
same,Leftward shift in dose-response,"NMRI mice [4]; mFST, with low dose of WAY100635",10 fold
same,Rightward shift in dose-response,"NMRI mice [4]; mFST, with non-sedative dose of SCH23390",10 fold
same,Ki,hERG channels,> 10 µM
same,fraction unbound at 2710 ng/ml,plasma protein [5],0.871
same,Stability in human hepatocytes,[6],stable
same,Increase in penile flow,"mice erectile tissue; 1 mg/kg, n=2",4.99 times
same,Penile flow,mice erectile tissue; infusion of 1 mg/kg,markedly increased
same,fraction unbound at 2710 ng/ml,plasma protein [7],0.747
same,Stability at 1 μM,[8],40%
same,Stability at 5 μM,[8],61%
same,Metabolite (mass units higher than parent),[9],None
same,Stability at 1 μM,[9],94%
same,Stability at 5 μM,[9],93%
same,IC50,NA transporter [10],0.046 µM
same,Ki,NA transporter [10],0.0501 µM
same,Human transporter ratio,NA transporter [10]; NA versus 5-HT,26
same,IC50,CYP 2C9,> 100 µM
same,IC50,Nicotinic α4β2,31 µM
same,Stability at 1 μM,[11],79%
same,Stability at 5 μM,[11],88%
same,T½ i.v.,"[12]; rat, 2.5 mg/kg i.v., 2.5 mg/kg",36 min
same,Tolerability of i.v. dose,"[12]; rats, 10 mg/kg i.v.",*Rats could not tolerate 10 mg/kg i.v. because of exaggerated dopaminergic effects.
same,IC50,CYP 2D6,44 µM
